Results reported in patent publication US7906491B2 (Univisitair Medisch Centrum Utrecht, priority 2002, dated 2011).

Columns and labels:
Ovcar3 cells = test: Adhesion of Ovcar3 cells to poly-L-lysine (integrin-independent); format: cell-based; conditions: FIG. 8
Method: Upper panel: a βl integrin-blocking peptide containing the RGD sequence present in fibronectin inhibits 8-pCPT-2′-O-Me-cAMP-induced cell adhesion. Ovcar3 cells were pre-treated for 20 minutes with RGD-peptide (100 μM) where indicated, and seeded in wells with or without 8-pCPT-2′-O-Me-cAMP. Cells were allowed to adhere for 1 h. […] Ovcar3 cells were seeded onto poly-L-lysine-coated plates. At various time points, adherent cells were quantified.
24-well plates were coated overnight with 2 μg/ml fibronectin (Sigma, St. Louis, Mo., USA) in sodium bicarbonate buffer (Sigma, St. Louis, Mo., USA). […] Cells were centrifuged, counted and resuspended at 3×10^5 cells/ml in serum-free RPMI with 0.5% BSA. […] Adherent cells were lysed in luciferase lysis buffer (15% glycerol, 25 mM Tris-phosphate pH 7.8, 1% Triton X-100, 8 mM MgCl2, 1 mM DTT) at 4° C. for 30 min and units of luciferase activity were quantified with addition of equal volume of luciferase assay buffer (25 mM Tris-phosphate pH 7.8, 8 MM MgCl2, 1 mM DTT, 1 mM ATP pH 7, 1 mM luciferin) using a luminometer (Lumat LB9507; Berthold Technologies, Belgium). […] Specific adhesion (%) was determined (counts in cells bound/counts in total input×100) and plotted either directly or relative to the basal adhesion of HA vector-transfected cells. […]

Epac = biological target: T1, Epac (Homo sapiens, UniProt O95398); test: Relative affinity for Epac (cAMP = 1), in vitro; format: binding; conditions: relative to cAMP = 1
T1 sequence (O95398 1-923): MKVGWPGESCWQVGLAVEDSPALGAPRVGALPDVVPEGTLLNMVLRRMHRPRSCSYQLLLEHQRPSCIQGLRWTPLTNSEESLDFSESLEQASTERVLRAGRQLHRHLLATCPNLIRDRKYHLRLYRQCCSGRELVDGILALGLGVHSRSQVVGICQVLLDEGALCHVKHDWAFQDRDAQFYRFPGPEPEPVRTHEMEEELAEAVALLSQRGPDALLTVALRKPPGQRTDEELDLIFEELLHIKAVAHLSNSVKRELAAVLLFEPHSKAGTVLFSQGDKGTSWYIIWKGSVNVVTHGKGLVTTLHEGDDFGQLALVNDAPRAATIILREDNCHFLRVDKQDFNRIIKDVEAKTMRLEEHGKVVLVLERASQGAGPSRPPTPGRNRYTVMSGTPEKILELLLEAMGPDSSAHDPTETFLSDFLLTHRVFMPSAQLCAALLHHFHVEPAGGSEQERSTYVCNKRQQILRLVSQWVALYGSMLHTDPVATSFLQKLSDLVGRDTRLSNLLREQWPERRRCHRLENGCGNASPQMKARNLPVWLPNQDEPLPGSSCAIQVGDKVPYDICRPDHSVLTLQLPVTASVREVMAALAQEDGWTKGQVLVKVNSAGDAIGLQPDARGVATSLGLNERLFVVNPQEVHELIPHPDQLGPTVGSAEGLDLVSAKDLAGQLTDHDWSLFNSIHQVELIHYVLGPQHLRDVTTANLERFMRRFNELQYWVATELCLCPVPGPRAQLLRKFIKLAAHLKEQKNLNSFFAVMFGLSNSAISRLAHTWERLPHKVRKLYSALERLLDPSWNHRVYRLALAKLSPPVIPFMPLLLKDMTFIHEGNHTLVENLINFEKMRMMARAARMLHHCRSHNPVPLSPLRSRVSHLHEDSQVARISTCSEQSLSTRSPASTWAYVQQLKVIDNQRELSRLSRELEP

human pancreatic β-cells = conditions: cited from earlier work
CREB = CREB phosphorylation (read-out for PKA) in NIH3T3-A14-Epac1 cells; format: cell-based; conditions: concentration as high as 100 μM
Method: Upper panel: NIH3T3-A14-Epac1 cells were treated for 15 min with 8-Br-cAMP, and cell lysates were analyzed for activation of Rap1 and phosphorylation of CREB. Lower panel: NIH3T3-A14-Epac1 cells were treated in duplicate for 15 min with increasing concentrations of 8-pCPT-2′-O-Me-cAMP. Cells were lysed and equal amounts of cell lysate were incubated with precoupled GST-RalGDSRBD and Rap1 was assayed by immunoblotting with Rap1 antibody.
Therefore, 8-CPT-2′-O-Me-cAMP was tested in NIH3T3-A14-Epac1 cells for the activation of Epac, using Rap1 as a read-out, and of PKA, using phosphorylation of the common PKA substrate CREB 29 as a read-out.
Antibodies against phosphorylated CREB (directed against phosphorylated Serl33) were obtained from Cell Signalling (Beverly, Mass., USA), and antibodies against K-Rev/Rap1 and polyclonal anti-HA were obtained from Santa Cruz Biotechnology (Santa Cruz, Calif., USA). The following inhibitors and stimuli were used at concentrations indicated, unless stated otherwise: RGD peptide (100 μM) and H-89 (10 μM) was obtained from Biomol Research Laboratories Inc. (Plymouth Meeting, Pa., USA). 8-Br-cAMP (1 mM) was obtained from BIOLOG Life Science Institute (Bremen, Germany). TPA (12-O-tetradecanoylphorbol-13-acetate) was obtained from Sigma (Steinheim, Germany) and was used at a concentration of 100 ng/ml. […]

PKAII = test: Relative affinity for PKAII (cAMP = 1), in vitro; format: binding; conditions: relative to cAMP = 1

For `CO[C@@H]1[C@@H]2OP(=O)(O)OC[C@H]2O[C@H]1n1c(Sc2ccc(Cl)cc2)nc2c(N)ncnc21` [Compound I-007, 8-(4-chloro-phenylthio)-2′-O-methyladenosine-3′,5′-cyclic monophosphate], the “integrin-independent adhesion to poly-L-lysine” value (Ovcar3 cells) is listed as “did not increase”, the “Relative affinity CAMP = 1 Epac” value (Epac) is listed as 4.6 and the exocytosis (human pancreatic β-cells) is listed as “induces exocytosis”. The “mobilization of Ca2+ from intracellular Ca2+ stores via Epac-mediated CICR” value (human pancreatic β-cells) was “can induce mobilization of Ca^2+”, the CREB phosphorylation (CREB) was “did not induce CREB phosphorylation” and the “Relative affinity CAMP = 1 PKAII” value (PKAII) was 0.003.
